Experiments:
Format in all cases: in vitro ADME
MATE1 = molecular target: T1, MATE1 (Homo sapiens, UniProt Q96FL8); assay: Transporter substrate determination, uptake in HEK293-MATE1 cells; details: for Maximum Ratio (uptake in transporter‐expressing cells to empty‐vector control cells): HEK293‐MATE1, 0.1, 1, 10 µM, threshold ≥2‐fold; for substrate of the transporter: MATE1
T1 construct: host or cells: HEK293
T1 sequence (Q96FL8 1-570): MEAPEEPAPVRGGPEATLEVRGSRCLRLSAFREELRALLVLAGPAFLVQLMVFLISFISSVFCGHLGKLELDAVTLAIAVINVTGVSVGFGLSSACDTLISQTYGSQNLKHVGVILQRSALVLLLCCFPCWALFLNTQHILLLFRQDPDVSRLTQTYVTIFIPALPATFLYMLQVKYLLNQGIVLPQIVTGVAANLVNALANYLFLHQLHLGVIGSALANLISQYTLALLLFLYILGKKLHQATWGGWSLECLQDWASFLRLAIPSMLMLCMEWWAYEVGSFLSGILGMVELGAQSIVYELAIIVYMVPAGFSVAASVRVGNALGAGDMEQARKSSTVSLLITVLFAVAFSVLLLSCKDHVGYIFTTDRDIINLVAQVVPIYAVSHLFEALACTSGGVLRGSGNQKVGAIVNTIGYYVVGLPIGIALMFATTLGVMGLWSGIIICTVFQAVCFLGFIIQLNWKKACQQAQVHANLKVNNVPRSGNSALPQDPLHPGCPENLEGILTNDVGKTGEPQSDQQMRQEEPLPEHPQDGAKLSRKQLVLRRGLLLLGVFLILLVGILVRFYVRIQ
Protocol: (§1) LC‐MS/MS analyses to assess metabolic stability and identify the transporter substrate were performed using an API 4000 QTRAP mass spectrometer (SCIEX, Framingham, MA) with electrospray ionization in positive mode. Chromatography was performed using an Atlantis dC18 analytical column (100 × 2.1 mm, 5 µm; Waters Corporation, Milford, MA). Mobile phases were 0.2% v/v formic acid in water and 0.2% v/v formic acid in acetonitrile. For metabolic stability experiments, FFA and metabolites were eluted at a flow rate of 0.6 mL/min, with a linear gradient of 20%−80% acetonitrile from 0.30−2.0 min. For transporter substrate experiments, the gradient was slightly modified to achieve suitable chromatography. The mass transitions monitored were 232.0 > 159.0 for FFA and 348.0 > 330.0 for 1ʹ‐OH‐midazolam‐d4 internal standard.
(§2) FFA and nFFA were evaluated as substrates of the transporters breast cancer resistance protein (BCRP), organic anion transporter (OAT)1, OAT3, organic cation transporter (OCT)2, MATE1, MATE2‐K, and P‐glycoprotein multidrug transporter (P‐gp; also known as MDR1 and ABCB1), according to published methods.[25], [26], [27], [28], [29] Madin‐Darby canine kidney (MDCKII)‐BCRP cells (Netherlands Cancer Institute, Amsterdam, Netherlands) or human embryonic kidney (HEK)293 cells transfected with other transporters (Sekisui Medical Co., Ltd., Tokyo, Japan) were used. Transporter‐transfected and control cells were incubated with FFA or nFFA (0.1, 1, or 10 μM), and the amount of FFA and nFFA accumulated in the cells was measured by LC‐MS/MS as described above. The accumulation of positive control substrates in the presence and absence of an inhibitor served as a positive control for transporter function. […] BCRP substrate determination was made by bi‐directional permeability across MDCKII‐BCRP and control cells cultured on 24‐well transwell plates. Incubation medium containing probe substrate was added. Ten minutes later, transepithelial electrical resistance (TEER) was recorded and cells were preincubated at 37 ± 2°C for 30−60 min before FFA or nFFA or positive control substrate with the solvent control or positive control inhibitor was added to the donor (apical) chamber. […] Samples containing FFA, nFFA, or probe substrate were mixed with internal standard and analyzed by LC‐MS/MS. […] An aliquot was added to 96‐well plate containing scintillation fluid that was analyzed by a MicroBeta^2 scintillation counter (Perkin Elmer, Waltham, MA). Protein concentration was determined by a bicinchoninic acid (BCA) protein assay according to the manufacturer’s protocol (Thermo Fisher Scientific, Waltham, MA). Non‐radiolabeled compounds were resuspended in a 50:50 v/v methanol:water solution containing internal standard and were analyzed by LC‐MS/MS. […]

[1] = Substrate loss and nFFA formation over time in human liver microsomes
Description: Microsomes from a mixed‐gender pool of 200 non‐transplantable human livers (Sekisui XenoTech, LLC, Kansas City, KS) were characterized as described.[20], [21] Human recombinant CYP450s (rCYP450s) and control membranes from Escherichia coli transfected with empty expression plasmid or plasmid expressing nicotinamide adenine dinucleotide phosphate (hydrogen) (NADPH)‐CYP450 oxidoreductase without CYP450 enzymes were obtained from Cypex, Ltd. Metabolite identification and stability studies used human liver S9 fractions (containing both microsomal and cytosolic fractions of the cell) from pooled human liver (n = 50) and intestine (n = 10), pooled canine liver (n = 8) and intestine (n = 7), and pooled rat liver (n = 454) and intestine (n = 199). All rCYP450 enzymes except rCYP1A2 and rCYP2D6 were expressed with cytochrome b5.
For FFA and nFFA reaction phenotyping experiments, LC‐MS/MS experiments were performed using an API 4000 QTRAP or QTRAP 5500 mass spectrometer (SCIEX) with positive electrospray ionization. Chromatography was performed using an Atlantis dC18 analytical column (100 × 2.1 mm, 5 µm; Waters Corporation). Mobile phases were 0.2% v/v formic acid in water and 0.2% v/v formic acid in methanol. FFA and nFFA were eluted at a flow rate of 0.5 mL/min with a linear gradient of 40%−95% methanol from 0.20−2.1 min. The mass transitions monitored were 232.0>109.0 for FFA, 204.0>159.0 for nFFA, 348.0>330.0 for 1’‐hydroxymidazolam‐d4 internal standard (FFA reaction phenotyping), and 262.0>244.0 for hydroxybupropion‐d6 internal standard (nFFA reaction phenotyping). Analyst Instrument Control and Data Processing software (v. 1.6.1) was used for collecting and integrating data (SCIEX). Calibration curves ranging from 1.25 µM−0.01 µM were used to quantify nFFA. Relative quantitation was used to approximate the amount of FFA test material used.
The line of best‐fit for calibration standards was calculated by weighted (1/x) linear regression based on peak‐area ratios of analyte to the internal standard using Analyst Instrument Control and Data Processing software (version 1.6.1; SCIEX). Mean analyte peak‐area ratio at each time point was normalized to controls at t = 0 min (100%).

MATE2‐K = molecular target: T2, MATE2‐K (Homo sapiens, UniProt Q86VL8); assay: Transporter substrate determination, uptake in HEK293-MATE2K cells; details: for Maximum Ratio (uptake in transporter‐expressing cells to empty‐vector control cells): HEK293‐MATE2K, 0.1, 1, 10 µM, threshold ≥2‐fold; for substrate of the transporter: MATE2‐K
T2 construct: host or cells: HEK293
Protocol: as §1, §2

T2 sequence (Q86VL8 1-566 isoform Q86VL8-3): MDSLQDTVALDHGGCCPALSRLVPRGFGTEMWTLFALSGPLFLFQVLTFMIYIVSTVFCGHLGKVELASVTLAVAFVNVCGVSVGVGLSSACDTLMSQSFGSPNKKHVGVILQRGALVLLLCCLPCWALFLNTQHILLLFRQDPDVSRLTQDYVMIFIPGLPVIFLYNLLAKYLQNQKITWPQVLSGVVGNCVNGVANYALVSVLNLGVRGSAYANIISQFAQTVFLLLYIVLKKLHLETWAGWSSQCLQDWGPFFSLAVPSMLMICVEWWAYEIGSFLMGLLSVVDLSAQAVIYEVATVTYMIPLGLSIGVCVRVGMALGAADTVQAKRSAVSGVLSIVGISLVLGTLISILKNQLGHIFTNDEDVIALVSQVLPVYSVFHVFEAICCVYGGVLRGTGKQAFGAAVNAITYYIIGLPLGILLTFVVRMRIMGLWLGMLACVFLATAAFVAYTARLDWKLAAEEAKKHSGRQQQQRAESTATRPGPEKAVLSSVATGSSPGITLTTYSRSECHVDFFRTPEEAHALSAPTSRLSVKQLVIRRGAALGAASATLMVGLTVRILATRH

| SMILES | Maximum Ratio (uptake in transporter‐expressing cells to empty‐vector control cells) (MATE1) | substrate of the transporter (MATE1) | FFA substrate loss ([1]; human liver microsomes 1 mg protein/mL, 1−100 µM FFA, all concentrations and times tested) [%] | substrate remaining in the absence of NADPH ([1]; human liver microsomes, FFA, absence of NADPH) | Maximum Ratio (uptake in transporter‐expressing cells to empty‐vector control cells) (MATE2‐K) | substrate of the transporter (MATE2‐K) | nFFA substrate loss in the absence of microsomal protein ([1]; control without microsomal protein) | nFFA substrate loss in the absence of the NADPH‐generating system ([1]; human liver microsomes, no NADPH-generating system) [%] |
| --- | --- | --- | --- | --- | --- | --- | --- | --- |
| CCNC(C)Cc1cccc(C(F)(F)F)c1 (racemic) [FFA, (RS)‐ethyl (α‐methyl‐3‐trifluoromethylphenethyl)amine] | 1.10 | not substrates | ≤ 7.7 | ~ 100% | 1.40 | not substrates | – | – |
| CC(N)Cc1cccc(C(F)(F)F)c1.Cl (stereo not drawn) [nFFA, 1‐(3‐(trifluoromethyl)phenyl)propan‐2‐amine hydrochloride] | 1.00 | not substrates | – | – | 1.50 | not substrates | no substrate loss detected | 1.2 |
